Experimental data as given in patent US10696686B2, “Herbicidally active (alkynyl-phenyl)-substituted cyclic dione compounds and derivatives thereof” (Syngenta Limited, priority 2013, dated 2020).
Like-named read-outs stand apart in the source and are kept apart here.

Assays:
Format in all cases: in vivo
[1] = system: Echinochloa crus-galli (ECHCG); test: Biological Example 1A glasshouse assay, post-emergence application; conditions: 312 h, read-out: Percentage phytotoxicity ECHCG
Procedure: (§1) Seeds of a variety of test plant species were sown in standard soil ** in pots. After cultivation for one day (pre-emergence) or after 8 days cultivation (post-emergence) under controlled conditions in a glasshouse (at 24/16° C., day/night; 14 hours light; 65% humidity), the plants were sprayed with an aqueous spray solution derived from the formulation of the technical active ingredient (the test herbicide) in acetone/water (50:50) solution containing 0.5% Tween 20 (polyoxyethylene sorbitan monolaurate, CAS Reg. No. 9005-64-5). The test plants were then grown on under controlled conditions in a glasshouse (at 24/16° C., day/night; 14 hours light; 65% humidity) and watered twice daily. 13 Days after application of the test herbicide, for pre- and post-emergence, the test was evaluated visually for percentage phytotoxicity to each plant (where 100%=total damage to plant; 0%=no damage to plant). Generally, each test herbicide is only tested on 1 plant per plant species for each application rate tested and for each application timing. ** The “standard soil” in Biological Example 1 is usually a “sand” or “sandy loam” type of soil.
(§2) Dicotyledonous weeds: ABUTH=Abutilon theophrasti; AMARE=Amaranthus retroflexus. Grassy monocotyledonous weeds: SETFA=Setaria faberi; ALOMY=Alopecurus myosuroides; ECHCG=Echinochloa crus-galli; ZEAMX=Zea mays (corn, maize, e.g. volunteer corn). For Compound A16, the grassy monocotyledonous weed LOLPE (Lolium perenne) was used in the test insterad of ALOMY.

Setaria faberi (SETFA) = test: as above; conditions: Setaria faberi, post-emergence, 312 h, read-out: Percentage phytotoxicity SETFA
Procedure: as §1, §2

Eleusine indica (ELEIN) = test: Biological Example 3 glasshouse assay using various adjuvant systems, post-emergence foliar spray; conditions: 8 g/ha
Procedure: (§3) Post-emergence foliar spray application, 200 L/ha, usually one or two replicates for the weeds (depending on application rate), and two replicates for soybean.
(§4) Standard warm conditions (tropical), in glasshouse. Specifically, the glasshouse bay conditions are 24° C./18° C. day/night; 16/8 hours light/dark; 65% humidity.
(§5) The herbicidal application takes place at the following growth stages for plants which include inter alia one or more of the following plants (usually the herbicidal application takes place on at least the following plants: DIGSA, ELEIN, SETFA, ZEAMX, GLXMA Nikko, and GLXMA TMG133, and often also either BRADC or BRAPP):
Eleusine indica (ELEIN)—growth stage 12 or 13
(§6) Each test compound is applied with one of the following adjuvant systems (all percentages are final concentrations in the aqueous spray mixture):
(§7) Adjuvant system 1: 0.5% v/v Adigor™ *, 1.0% v/v AMS (ammonium sulphate) and 12.5% v/v IPA (isopropyl alcohol).
(§8) Adjuvant system 1A: 0.5% v/v Adigor™ * and 12.5% v/v IPA (isopropyl alcohol).
CAS Registry no. […] A visual assessment of the % herbicidal damage is made 7 and 14 Days After herbicide Application (DAA) (or, in a minority of cases, 7 and 15 DAA), and the results are recorded as % visual herbicidal damage where 0%=no damage to plants and 100%=plant totally killed. *** Adjuvant system=either Adigor™ or Hexamoll DINCH™ or tris-(2-ethylhexyl) phosphate each at 0.5% v/v, and 12.5% v/v IPA (isopropyl alcohol), and 1.0% v/v AMS (ammonium sulphate); or 0.5% v/v Adigor™ and 12.5% v/v IPA (isopropyl alcohol); all percentages are final concentrations in the aqueous spray mixture. […]
The percentages of herbicidal damage/plant control, at 14 Days After herbicide Application (DAA) (or, in a minority of cases, at 15 DAA), for the Compounds tested and for some of the plants tested, were in the following percentage ranges. […] Phytotoxicity on Glycine max (GLXMA, Soybean) Cultivar “TMG133” Glycine max (GLXMA, soybean) cultivar “TMG133” is Roundup Ready™ glyphosate-tolerant soybean cultivar TMG133, and is typically available from Monsanto in Brazil.

[2] = system: Glycine max (GLXMA, soybean) cultivar Nikko; test: as above; conditions: for percentage phytotoxicity on Glycine max (GLXMA, soybean) cultivar Nikko: post-emergence
Procedure: as §3, §4, §5
Glycine max (GLXMA, soybean) cultivar “Nikko”—growth stage: 1st trifoliate
as §6, §7, §8
CAS Registry no. 166412-78-8), and is usually available from BASF. “Isononyl” in this context is thought to mean a mixture of two or more branched isomers of C9H19. Method: Seeds of the weed (including volunteer) plants, typically including inter alia Digitaria sanguinalis (DIGSA), Eleusine indica (ELEIN), Setaria faberi (SETFA), Zea mays (ZEAMX, corn), and sometimes also [either Brachiaria decumbens (BRADC) or Brachiaria platyphylla (BRAPP)], are sown in seed trays (troughs) containing clay loam soil (pH 7.0, 2.2% organic matter, “Trough Mix A”); and soybean seed is sown in pots containing the same soil with 3 soybean seedlings per pot. The plants are sprayed with the test herbicide when they reach the growth stages mentioned above. The test herbicidal solutions are prepared by mixing the appropriate aliquots of the test substance(s) and one of the adjuvant systems indicated above *** in deionised water to give the desired treatment concentration. The herbicidal application is made as a foliar spray, using a tracksprayer. Following the herbicidal application, the plants are watered twice per day for the duration of the test. A visual assessment of the % herbicidal damage is made 7 and 14 Days After herbicide Application (DAA) (or, in a minority of cases, 7 and 15 DAA), and the results are recorded as % visual herbicidal damage where 0%=no damage to plants and 100%=plant totally killed. *** Adjuvant system=either Adigor™ or Hexamoll DINCH™ or tris-(2-ethylhexyl) phosphate each at 0.5% v/v, and 12.5% v/v IPA (isopropyl alcohol), and 1.0% v/v AMS (ammonium sulphate); or 0.5% v/v Adigor™ and 12.5% v/v IPA (isopropyl alcohol); all percentages are final concentrations in the aqueous spray mixture.
Compounds A8, A11 and A17, which are compounds of formula (I) according to the present invention, were tested in a test method substantially as described above.
Compound A8 was tested using the 0.5% v/v Adigor™+12.5% v/v IPA adjuvant system. Compounds A11 and A17 were tested using the 0.5% v/v Adigor™+1.0% v/v AMS+12.5% v/v IPA adjuvant system.
The percentages of herbicidal damage/plant control, at 14 Days After herbicide Application (DAA) (or, in a minority of cases, at 15 DAA), for the Compounds tested and for some of the plants tested, were in the following percentage ranges. At least for Compounds A8 and A17, the phytotoxicity results shown herein are the average of 2 repetitions (for the grassy weeds, corn and soybean). […] Control of Zea mays (ZEAMX, Corn), a Warm-Climate (Warm-Season) Grassy Plant Zea mays (ZEAMX, maize, corn) is often present as a “volunteer” weed (“volunteer” corn) in fields where it was planted as a crop in preceding growing season(s) and where the present field crop is not corn. […]

[3] = 30 g/ha, 13 days after application
[4] = 250 g/ha, 13 days after application

SMILES	pest or weed control at 30 g/ha [1] [%]	pest or weed control at 250 g/ha [1] [%]	pest or weed control at 30 g/ha (Setaria faberi (SETFA)) [%]	pest or weed control at 250 g/ha (Setaria faberi (SETFA)) [%]	percentage control of (phytotoxicity on) Eleusine indica (ELEIN) (Eleusine indica (ELEIN); 14 DAA, adjuvant 0.5% v/v Adigor + 12.5% v/v IPA) [%]	percentage phytotoxicity on Glycine max (GLXMA, soybean) cultivar Nikko ([2]; 120 g/ha, 14 DAA, adjuvant 0.5% v/v Adigor + 12.5% v/v IPA) [%]	phytotoxicity on soybean (in words) ([2]; see Biological Example 3 (soybean cultivars Nikko and TMG133))	pest or weed control at 30 g/ha [1, 3] [%]	pest or weed control at 250 g/ha [1, 4] [%]	pest or weed control at 30 g/ha (Setaria faberi (SETFA); [3]) [%]	pest or weed control at 250 g/ha (Setaria faberi (SETFA); [4]) [%]	percentage control of Eleusine indica (ELEIN) (Eleusine indica (ELEIN); 14 DAA (A11: 14 or 15 DAA), adjuvant 0.5% v/v Adigor + 1.0% v/v AMS + 12.5% v/v IPA) [%]	percentage phytotoxicity on Glycine max (GLXMA, soybean) cultivar Nikko ([2]; 120 g/ha, 14 DAA (A11: 14 or 15 DAA), adjuvant 0.5% v/v Adigor + 1.0% v/v AMS + 12.5% v/v IPA) [%]	percentage phytotoxicity on Glycine max (GLXMA, soybean) cultivar Nikko ([2]; 240 g/ha, 14 DAA (A11: 14 or 15 DAA), adjuvant 0.5% v/v Adigor + 1.0% v/v AMS + 12.5% v/v IPA) [%]
C#CCC1CC(=O)C(c2c(F)cc(C#CC)cc2OC)C1=O (centres unmarked) [Compound A8, 2-(2-fluoro-6-methoxy-4-prop-1-ynyl-phenyl)-4-prop-2-ynyl-cyclopentane-1,3-dione]	100	100	80	100	40	30	low phytotoxicity	–	–	–	–	–	–	–
CC#Cc1cc(F)c(C2C(=O)CC(CCSC)CC2=O)c(OC)c1 (centres unmarked) [Compound A11]	–	–	–	–	–	–	–	0	10	30	60	0	5	5
